Data on 2 compounds can be found in patent US9988406B2, “Forms of R)-3-(4-(2-(2-methyltetrazol-5-yl)pyridin-5-yl)-3-fluorophenyl)-5-hydroxymethyl oxazolidin-2-one dihydrogen phosphate” (Merck Sharp & Dohme Corp., priority 2009, dated 2018).

Data set [1] in a line: hygroscopicity / water content of the free acid and salt forms. The format is physicochemical.
The nature of data set [2]: stability of the crystalline free acid and salt forms. In kind it is physicochemical.

In the case of `Cn1nnc(-c2ccc(-c3ccc(N4CC(COP(=O)([O-])O)OC4=O)cc3F)cn2)n1.[Na+]` (stereo not shown) [mono-sodium salt], the “hygroscopicity (in words)” value in data set [1] was “very hygroscopic”. Moreover, the water content result in data set [1] (material as prepared) is recorded as “over 10 % by weight”.

“(R)-3-(4-(2-(2-methyltetrazol-5-yl)pyridin-5-yl)-3-fluorophenyl)-5-hydroxymethyl oxazolidin-2-one dihydrogen phosphate [free acid]”: the “hygroscopicity (in words)” value in data set [1] is recorded as “non-hygroscopic”. Also, in data set [2], the “stability of the crystalline form (in words)” value was “very stable at a relatively high temperature”.
